Measurements reported in the supplement of paper PMC10307832.

Key:
Test in all cases: relative viability (nuclei count vs DMSO), 5 days (fraction); higher = more cells survive
NCI-H1734 = tested on: NCI-H1734
In short: (§1)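 Values are medians from duplicate plates. Each reflects relative viability, defined as the nuclei count of treated wells over that of vehicle wells. Lung cancer cell lines in 1536-well plates were pin-tool dosed one day after seeding with one drug alone or with a fixed anchor-drug dose plus five library-drug doses (not always all listed) in √10 steps, then fixed, stained and imaged at 4× after 5 days.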

NCI-H520 = tested on: NCI-H520
In short: as §1

PC-3 [JPC-3] = tested on: PC-3 [JPC-3]
In short: as §1

HCC-827 = tested on: HCC-827
In short: as §1

NCI-H661 = tested on: NCI-H661
In short: as §1

NCI-H1355 = tested on: NCI-H1355
In short: as §1

NCI-H1650 = tested on: NCI-H1650
In short: as §1

RERF-LC-KJ = tested on: RERF-LC-KJ
In short: as §1

COR-L23 = tested on: COR-L23
In short: as §1

LK-2 = tested on: LK-2
In short: as §1

EKVX = tested on: EKVX
In short: as §1

H3255 = tested on: H3255
In short: as §1

ABC-1 = tested on: ABC-1
In short: as §1

NCI-H2228 = tested on: NCI-H2228
In short: as §1

NCI-H2405 = tested on: NCI-H2405
In short: as §1

SK-MES-1 = tested on: SK-MES-1
In short: as §1

CAL-12T = tested on: CAL-12T
In short: as §1

SW 1573 = tested on: SW 1573
In short: as §1

PC-14 = tested on: PC-14
In short: as §1

HCC-15 = tested on: HCC-15
In short: as §1

NCI-H1651 = tested on: NCI-H1651
In short: as §1

NCI-H1437 = tested on: NCI-H1437
In short: as §1

NCI-H322M = tested on: NCI-H322M
In short: as §1

COc1cc(N2CCC(C(N)=O)CC2)ccc1Nc1nc(N)c(Cl)c(Nc2ccccc2S(=O)(=O)C(C)C)n1 [HG-5-88-01] + O=C(CCCCCCC(=O)Nc1ccccc1)NO [Vorinostat] (partner 1 µM)
relative viability (NCI-H1734; first compound 0.04 µM): 0.969
relative viability (NCI-H1734; first compound 0.1265 µM): 0.871
relative viability (NCI-H1734; first compound 0.4 µM): 0.833
relative viability (NCI-H1734; first compound 1.265 µM): 0.773
relative viability (NCI-H1734; first compound 4 µM): 0.795
relative viability (NCI-H520; first compound 0.04 µM): 0.747
relative viability (NCI-H520; first compound 0.1265 µM): 0.601
relative viability (NCI-H520; first compound 0.4 µM): 0.803
relative viability (NCI-H520; first compound 1.265 µM): 0.79
relative viability (NCI-H520; first compound 4 µM): 0.781
relative viability (PC-3 [JPC-3]; first compound 0.04 µM): 0.879
relative viability (PC-3 [JPC-3]; first compound 0.1265 µM): 0.756
relative viability (PC-3 [JPC-3]; first compound 0.4 µM): 0.58
relative viability (PC-3 [JPC-3]; first compound 1.265 µM): 0.724
relative viability (PC-3 [JPC-3]; first compound 4 µM): 0.303
relative viability (HCC-827; first compound 0.04 µM): 0.829
relative viability (HCC-827; first compound 0.1265 µM): 0.807
relative viability (HCC-827; first compound 0.4 µM): 0.87
relative viability (HCC-827; first compound 1.265 µM): 0.335
relative viability (HCC-827; first compound 4 µM): 0.235
relative viability (NCI-H661; first compound 0.04 µM): 0.793
relative viability (NCI-H661; first compound 0.1265 µM): 0.791
relative viability (NCI-H661; first compound 0.4 µM): 0.771
relative viability (NCI-H661; first compound 1.265 µM): 0.761
relative viability (NCI-H661; first compound 4 µM): 0.856
relative viability (NCI-H1355; first compound 0.04 µM): 0.59
relative viability (NCI-H1355; first compound 0.1265 µM): 0.62
relative viability (NCI-H1355; first compound 0.4 µM): 0.626
relative viability (NCI-H1355; first compound 1.265 µM): 0.587
relative viability (NCI-H1355; first compound 4 µM): 0.399
relative viability (NCI-H1650; first compound 0.04 µM): 0.577
relative viability (NCI-H1650; first compound 0.1265 µM): 0.654
relative viability (NCI-H1650; first compound 0.4 µM): 0.541
relative viability (NCI-H1650; first compound 1.265 µM): 0.526
relative viability (NCI-H1650; first compound 4 µM): 0.46
relative viability (RERF-LC-KJ; first compound 0.04 µM): 0.73
relative viability (RERF-LC-KJ; first compound 0.1265 µM): 0.703
relative viability (RERF-LC-KJ; first compound 0.4 µM): 0.624
relative viability (RERF-LC-KJ; first compound 1.265 µM): 0.691
relative viability (RERF-LC-KJ; first compound 4 µM): 0.405
relative viability (COR-L23; first compound 0.04 µM): 0.496
relative viability (COR-L23; first compound 0.1265 µM): 0.381
relative viability (COR-L23; first compound 0.4 µM): 0.355
relative viability (COR-L23; first compound 1.265 µM): 0.364
relative viability (COR-L23; first compound 4 µM): 0.227
relative viability (LK-2; first compound 0.04 µM): 0.326
relative viability (LK-2; first compound 0.1265 µM): 0.411
relative viability (LK-2; first compound 0.4 µM): 0.466
relative viability (LK-2; first compound 4 µM): 0.306
relative viability (EKVX; first compound 0.04 µM): 0.789
relative viability (EKVX; first compound 0.1265 µM): 0.775
relative viability (EKVX; first compound 0.4 µM): 0.712
relative viability (EKVX; first compound 4 µM): 0.63
relative viability (H3255; first compound 0.04 µM): 0.77
relative viability (H3255; first compound 0.1265 µM): 0.907
relative viability (H3255; first compound 0.4 µM): 0.729
relative viability (H3255; first compound 4 µM): 0.741
relative viability (ABC-1; first compound 0.04 µM): 1.07
relative viability (ABC-1; first compound 0.1265 µM): 1.48
relative viability (ABC-1; first compound 0.4 µM): 1.04
relative viability (ABC-1; first compound 1.265 µM): 1.04
relative viability (ABC-1; first compound 4 µM): 0.715
relative viability (NCI-H2228; first compound 0.04 µM): 0.731
relative viability (NCI-H2228; first compound 0.1265 µM): 0.421
relative viability (NCI-H2228; first compound 0.4 µM): 0.3
relative viability (NCI-H2228; first compound 1.265 µM): 0.348
relative viability (NCI-H2228; first compound 4 µM): 0.379
relative viability (NCI-H2405; first compound 0.04 µM): 1.07
relative viability (NCI-H2405; first compound 0.1265 µM): 1.06
relative viability (NCI-H2405; first compound 0.4 µM): 0.895
relative viability (NCI-H2405; first compound 1.265 µM): 1.03
relative viability (NCI-H2405; first compound 4 µM): 1.02
relative viability (SK-MES-1; first compound 0.04 µM): 1.14
relative viability (SK-MES-1; first compound 0.1265 µM): 1.03
relative viability (SK-MES-1; first compound 0.4 µM): 1.1
relative viability (SK-MES-1; first compound 1.265 µM): 0.979
relative viability (SK-MES-1; first compound 4 µM): 1.21
relative viability (CAL-12T; first compound 0.04 µM): 0.747
relative viability (CAL-12T; first compound 0.1265 µM): 0.89
relative viability (CAL-12T; first compound 0.4 µM): 0.623
relative viability (CAL-12T; first compound 1.265 µM): 0.811
relative viability (CAL-12T; first compound 4 µM): 0.49
relative viability (SW 1573; first compound 0.04 µM): 0.657
relative viability (SW 1573; first compound 0.1265 µM): 0.896
relative viability (SW 1573; first compound 0.4 µM): 0.816
relative viability (SW 1573; first compound 1.265 µM): 0.755
relative viability (SW 1573; first compound 4 µM): 0.851
relative viability (PC-14; first compound 0.04 µM): 0.813
relative viability (PC-14; first compound 0.1265 µM): 0.759
relative viability (PC-14; first compound 0.4 µM): 0.656
relative viability (PC-14; first compound 1.265 µM): 0.261
relative viability (PC-14; first compound 4 µM): 0.155
relative viability (HCC-15; first compound 0.04 µM): 0.822
relative viability (HCC-15; first compound 0.1265 µM): 0.916
relative viability (HCC-15; first compound 0.4 µM): 0.761
relative viability (HCC-15; first compound 1.265 µM): 0.833
relative viability (HCC-15; first compound 4 µM): 0.786
relative viability (NCI-H1651; first compound 0.04 µM): 0.509
relative viability (NCI-H1651; first compound 0.1265 µM): 0.57
relative viability (NCI-H1651; first compound 0.4 µM): 0.572
relative viability (NCI-H1651; first compound 1.265 µM): 0.552
relative viability (NCI-H1651; first compound 4 µM): 0.528
relative viability (NCI-H1437; first compound 0.04 µM): 0.899
relative viability (NCI-H1437; first compound 0.1265 µM): 0.897
relative viability (NCI-H1437; first compound 0.4 µM): 0.645
relative viability (NCI-H1437; first compound 1.265 µM): 0.78
relative viability (NCI-H1437; first compound 4 µM): 0.613
relative viability (NCI-H322M; first compound 0.04 µM): 0.864
relative viability (NCI-H322M; first compound 0.1265 µM): 0.809
relative viability (NCI-H322M; first compound 0.4 µM): 0.782
relative viability (NCI-H322M; first compound 1.265 µM): 0.668
relative viability (NCI-H322M; first compound 4 µM): 0.706
